Reference: article PMC4696656, “Insights into the Mechanism of Action of Bactericidal Lipophosphonoxins” (PLoS ONE, 2015)
≈ marks a conversion by molar mass, not a printed value. Where two headings read alike, the source gives them in different places.

Key:
[1] = comparable conditions, 1 M salt solution, cited from earlier work
B. subtilis 168 = assay: Selection for resistant strains, stepwise two-fold increased concentration; format: cell-based, Bacillus subtilis; details: 24 h cultures, two-fold increased concentration each transfer; rifampicin from 0.01 mg/L, DR5026 from 0.5 mg/L
Description: A) B. subtilis. […] Then, the growth of the culture was evaluated by OD600nm and an aliquot of the culture was transferred to a new tube with fresh medium and a two-fold increased concentration of the active compound. This template was followed until no growth was detected for DR5026 or until B. subtilis grew at 5 mg/L of rifampicin.

Bacillus subtilis = assay: MIC, standard microdilution method
[2] = tested on: Mouse macrophages J774A.1; assay: Membrane permeabilization assay (propidium iodide uptake); format: cell-based; details: LPPOs 10 mg/L, melittin 10 μM
Description: Mouse macrophages J774A.1 (ATCC, number TIB-67) were cultured at 37°C in a humidified air/CO2 (19:1) atmosphere in RPMI medium supplemented with 10% (v/v) heat-inactivated fetal bovine serum, penicillin (100 IU/ml), streptomycin (100 mg/L), and amphotericin B (250 μg/L). For fluorescence measurements, cells were mechanically harvested, seeded on glass coverslips in 6-well plates, and grown to 30% confluence (about 2x10^5 cells). Cells grown on coverslips were washed in modified HBSS solution (140 mM NaCl, 5 mM KCl, 2 mM CaCl2, 3 mM MgCl2, 10 mM HEPES-Na, 50 mM glucose, pH 7.4) and promptly mounted into custom-made polypropylene holder which was placed horizontally into a quartz cuvette filled with HBSS containing 10 μM PI. The uptake of PI was observed as fluorescence increase using identical setting as with bacterial cells (see above). The observed area of the coverslip was about 10 mm^2, corresponding to approximately 10^4 cells.

alamethicin
channel conductance ([1]; no reference given): ca. 600 pS

CO[C@H]1/C=C/O[C@@]2(C)Oc3c(C)c(O)c4c(O)c(c(/C=N/N5CCN(C)CC5)c(O)c4c3C2=O)NC(=O)/C(C)=C\C=C\[C@H](C)[C@H](O)[C@@H](C)[C@@H](O)[C@@H](C)[C@H](OC(C)=O)[C@@H]1C [rifampicin, reference compound]
development of resistance (B. subtilis 168): able to obtain cells growing in the presence of 5 mg/L of rifampicin | MIC against wt B. subtilis (Bacillus subtilis; B. subtilis 168, as stated for the resistance selection experiment): 0.06 µg/mL (≈ 0.0729 µM) | MIC (Bacillus subtilis; Bacillus subtilis, read-out: MIC against wt B. subtilis, B. subtilis 168, as stated for the resistance selection experiment): ~0.06 µg/mL (≈ 0.0729 µM)

melittin
effect on cytoplasmic membrane permeability (PI uptake) [2]: did so

gramicidin A
channel conductance [1]: ca. 20 pS
